Among the data in ChEMBL document CHEMBL1152021, “(E) and (Z)-3-Styrylpiperidines as sigma ligands” (Bioorg Med Chem Lett, 1997) are IC50 values, retold here.

A value given as a limit tells only on which side of the number the result lay.

In assay [1] the target is Sigma non-opioid intracellular receptor 1 (Rattus norvegicus, UniProt Q9R0C9). Briefly: Binding affinity at sigma receptor by [3H](+)-SKF-10047 displacement.
The target in a further assay is D(2) dopamine receptor (Rattus norvegicus, UniProt P61169). The experiment in a line: Binding affinity at dopamine D2 receptor in rat striatum by [3H]spiperone displacement. In kind it is tissue-based.
Another assay has as its target D(1A) dopamine receptor (Rattus norvegicus, UniProt P18901). The experiment in a line: Binding affinity at dopamine D1 receptor in rat striatum by [3H][…] displacement. In kind it is tissue-based.

A word on the IC50: it is the point on the concentration scale where inhibition reaches its midpoint.

Sigma non-opioid intracellular receptor 1, sequence (Q9R0C9 whole entry): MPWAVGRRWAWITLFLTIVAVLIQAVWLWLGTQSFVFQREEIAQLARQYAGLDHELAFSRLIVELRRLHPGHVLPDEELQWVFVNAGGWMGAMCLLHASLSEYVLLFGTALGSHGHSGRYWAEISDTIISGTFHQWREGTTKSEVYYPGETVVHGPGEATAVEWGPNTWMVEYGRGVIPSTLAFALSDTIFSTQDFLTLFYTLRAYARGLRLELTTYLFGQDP
D(2) dopamine receptor, sequence (P61169 whole entry): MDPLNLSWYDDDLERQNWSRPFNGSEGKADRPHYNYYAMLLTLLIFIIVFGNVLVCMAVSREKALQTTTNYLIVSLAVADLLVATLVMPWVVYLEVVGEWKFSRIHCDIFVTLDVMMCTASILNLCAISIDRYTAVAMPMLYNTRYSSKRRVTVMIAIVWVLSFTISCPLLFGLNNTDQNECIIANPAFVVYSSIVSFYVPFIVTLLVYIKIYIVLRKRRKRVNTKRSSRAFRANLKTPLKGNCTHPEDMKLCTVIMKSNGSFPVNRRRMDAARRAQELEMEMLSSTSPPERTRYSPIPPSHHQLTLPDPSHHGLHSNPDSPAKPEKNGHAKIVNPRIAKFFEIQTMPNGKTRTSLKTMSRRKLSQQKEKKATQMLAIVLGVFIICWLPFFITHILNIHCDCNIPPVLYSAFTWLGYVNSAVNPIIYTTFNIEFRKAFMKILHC
D(1A) dopamine receptor, sequence (P18901 whole entry): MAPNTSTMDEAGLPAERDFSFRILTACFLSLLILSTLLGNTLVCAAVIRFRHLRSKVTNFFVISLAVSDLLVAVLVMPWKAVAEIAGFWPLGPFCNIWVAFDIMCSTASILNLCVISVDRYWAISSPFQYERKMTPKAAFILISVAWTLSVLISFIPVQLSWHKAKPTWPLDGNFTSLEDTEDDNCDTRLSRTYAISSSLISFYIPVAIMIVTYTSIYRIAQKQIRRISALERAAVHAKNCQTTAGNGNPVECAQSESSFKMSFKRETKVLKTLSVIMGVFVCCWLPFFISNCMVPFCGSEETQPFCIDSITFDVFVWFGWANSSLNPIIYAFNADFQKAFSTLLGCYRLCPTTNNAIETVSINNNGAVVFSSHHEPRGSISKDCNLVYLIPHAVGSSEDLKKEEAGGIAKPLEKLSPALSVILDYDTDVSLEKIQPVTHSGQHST

Regarding `O=C1c2ccccc2S(=O)(=O)N1CCCCN1CCCC(/C=C/c2ccccc2)C1` (stereo not drawn), the IC50 in assay [1] came out at 23 nM.
For `C(=C\C1CCCN(CCc2ccccc2)C1)/c1ccccc1` (stereo not drawn), the IC50 on D(2) dopamine receptor was 2400 nM; in assay [1], 6 nM; at D(1A) dopamine receptor, more than 10000 nM.
`O=C(CCCN1CCCC(/C=C\c2ccccc2)C1)c1ccccc1` (stereo not drawn) registered an IC50 in assay [1] of 15 nM.
The same measure, in the same setting: to `O=C(CN1CCCC(/C=C\c2ccccc2)C1)Nc1ccccc1` (stereo not drawn) belongs 640 nM.
As for `C(=C\C1CCCN(C2CCCCC2)C1)/c1ccccc1` (stereo not drawn), the IC50 at D(2) dopamine receptor was 5120 nM; in assay [1], 6 nM; on D(1A) dopamine receptor, more than 10000 nM.
The matching figures for `C(=C/C1CCCN(CCc2ccccc2)C1)/c1ccccc1` (stereo not drawn): 120 nM, 0.8 nM and 630 nM.
`C(=C\C1CCCN(CCCOc2ccccc2)C1)/c1ccccc1` (stereo not drawn) showed an IC50 in assay [1] of 33 nM.
Turning to `C(=C\C1CCCN(CCCc2ccccc2)C1)/c1ccccc1` (stereo not drawn), the figures for the IC50 (on D(2) dopamine receptor; in assay [1]; at D(1A) dopamine receptor) were 1240 nM, 4 nM and 1550 nM, respectively.
Consider `C(=C/C1CCCN(CCCSc2nc3ccccc3s2)C1)/c1ccccc1` (stereo not drawn), for which, in assay [1], the IC50 is 27 nM.
Regarding `C(=C/C1CCCNC1)/c1ccccc1` (stereo not drawn), the IC50 on D(2) dopamine receptor was 870 nM; in assay [1] it was 64 nM; at D(1A) dopamine receptor, more than 10000 nM.
On to `CC(C)=CCN1CCCC(/C=C/c2ccccc2)C1` (stereo not drawn), for which the figures for the IC50 (at D(2) dopamine receptor; in assay [1]; on D(1A) dopamine receptor) were 180 nM, 38 nM and 1330 nM, respectively.
On to `C=CCCCN1CCCC(/C=C/c2ccccc2)C1` (stereo not drawn), for which the IC50 in assay [1] was 12 nM.
Same read-out and setting: to `O=C(NCCCCN1CCCC(/C=C\c2ccccc2)C1)C12C[C@H]3C[C@@H](C1)C[C@@H](C2)C3` (stereo partly drawn) belongs 23 nM.
For `C(=C/C1CCCN(CCCc2ccccc2)C1)/c1ccccc1` (stereo not drawn), the IC50 on D(2) dopamine receptor is 150 nM; in assay [1], 0.6 nM; at D(1A) dopamine receptor, 2200 nM.
In turn, `C(=C/C1CCCN(CCCOc2ccccc2)C1)/c1ccccc1` (stereo not drawn) came in with an IC50 in assay [1] of 15 nM.
For `C=CCN1CCCC(/C=C/c2ccccc2)C1` (stereo not drawn), the values for the IC50 (at D(2) dopamine receptor; in assay [1]; at D(1A) dopamine receptor) were more than 10000 nM, 4 nM and more than 10000 nM, respectively.
For `C(=C/C1CCCN(C2CCCCC2)C1)/c1ccccc1` (stereo not drawn), the values for the IC50 (on D(2) dopamine receptor; in assay [1]; at D(1A) dopamine receptor) were 1120 nM, 2 nM and more than 10000 nM, respectively.
In the case of `C(=C/C1CCCN(CCC2CCCCC2)C1)/c1ccccc1` (stereo not drawn), the IC50 at D(2) dopamine receptor is 5440 nM; in assay [1], 7 nM; at D(1A) dopamine receptor, more than 10000 nM.
In the same order, the values of `C(=C/C1CCCN(CCCCc2ccccc2)C1)/c1ccccc1` (stereo not drawn) are 1440 nM, 7 nM and 5840 nM.
The molecule `C(=C\C1CCCN(Cc2ccccc2)C1)/c1ccccc1` (stereo not drawn) yielded an IC50 in assay [1] of 10 nM.
On to `CC(C)=CCN1CCCC(/C=C\c2ccccc2)C1` (stereo not drawn), for which the results for the IC50 (on D(2) dopamine receptor; in assay [1]; at D(1A) dopamine receptor) were 160 nM, 1 nM and 320 nM, respectively.
In the same order, the values of `C(=C\C1CCCNC1)/c1ccccc1` (stereo not drawn) are more than 10000 nM, 423 nM and more than 10000 nM.
